In one experiment the target is T1, mTOR (Homo sapiens, UniProt P42345).
T1 construct: endogenous in cells; host or cells: Jurkat, clone E6-1 (ATCC TIB-152) cell lysate
The experiment in a line: mTOR kinobeads assay (competitive binding in Jurkat cell lysate, immunodetection). The settings on record: kinobeads assay. The protocol: The compounds of the present invention as described were tested in the mTOR kinobeads assay as described below. […] After the incubation time the beads with captured proteins were separated from the lysate. Bound proteins were then eluted and the presence of mTOR, PI3K delta (PI3 Kd) and DNA-dependent protein kinase (DNA-PK) was detected and quantified using a specific antibody in a dot blot procedure and the Odyssey infrared detection system.
(§1) The kinobeads assay was performed as a competitive binding assay in which test compounds were added directly into a cell lysate. Test compounds (at various concentrations) and the affinity matrix (beads with immobilized phenylmorpholin-chromen ligand) were added to cell lysate aliquots and allowed to bind to the proteins contained in the lysate sample. After the incubation time the beads with captured proteins were separated from the lysate. Bound proteins were then eluted and the presence of kinases was detected and quantified using a multiplexed immunodetection format. Dose response curves for individual kinases were generated and IC50 values calculated.
(§2) 5×DP buffer: 250 mM Tris-HCl pH 7.4, 25% Glycerol, 7.5 mM MgCl2, 750 mM NaCl, 5 mM Na3VO4, filter the 5×-lysis buffer through 0.22 μm filter and store in aliquots at −80° C. The 5×DP buffer is diluted to 1×DP buffer containing 1 mM DTT and 25 mM NaF.
Stock solutions of test compounds were prepared in DMSO. In a 96 well plate 30 μl solution of diluted test compounds at 5 mM in DMSO were prepared. Starting with this solution a 1:3 dilution series (9 steps) was prepared. For control experiments (no test compound) a buffer containing 2% DMSO was used.
Jurkat cells were homogenized in a Potter S homogenizer in lysis buffer: 50 mM Tris-HCl, 0.8% NP40, 5% glycerol, 150 mM NaCl, 1.5 mM MgCl2, 25 mM NaF, 1 mM sodium vanadate, 1 mM DTT, pH 7.5. […] The material was dounced 10 times using a mechanized POTTER S, transferred to 50 ml falcon tubes, incubated for 30 minutes on ice and spun down for 10 min at 20,000 g at 4° C. (10,000 rpm in Sorvall SLA600, precooled). […] (33.500 rpm in Ti50.2, precooled). The supernatant was transferred again to a fresh 50 ml falcon tube, the protein concentration was determined by a Bradford assay (BioRad) and samples containing 50 mg of protein per aliquot were prepared. The samples were immediately used for experiments or frozen in liquid nitrogen and stored frozen at −80° C.
Jurkat cell lysate (approximately 50 mg protein per plate) was thawed in a water bath at room temperature and then kept on ice. […] The diluted cell lysate was stored on ice.
Plates were sealed and incubated for two hours in a cold room on a Thermoxer with shaking (750 rpm). Afterwards the plate was washed twice with 230 μl washing buffer (1×DP 0.4% NP40). […] The eluate was frozen quickly at −80° C. and stored at −20° C.
The kinases in the eluates were detected and quantified by spotting on Nitrocellulose membranes and using a first antibody directed against the kinase of interest and a fluorescently labeled secondary antibody (anti-mouse or anti-rabbit IRDye™ antibodies from Rockland).
Afterwards the membrane was washed three times for 10 minutes with PBS buffer containing 0.1% Tween 20 at room temperature. […] Afterwards the membrane was washed three times for 10 minutes each with 1×PBS buffer containing 0.1% Tween 20 at room temperature. Then the membrane was rinsed once with PBS buffer to remove residual Tween 20. The membrane was kept in PBS buffer at 4° C. and then scanned with the Odyssey instrument. Fluorescence signals were recorded and analysed according to the instructions of the manufacturer.

The target of the next experiment is T2, PI3K delta (PI3 Kd) (Homo sapiens, UniProt O00329).
T2 construct: endogenous in cells; host or cells: Jurkat, clone E6-1 (ATCC TIB-152) cell lysate
T2 sequence (O00329 whole entry): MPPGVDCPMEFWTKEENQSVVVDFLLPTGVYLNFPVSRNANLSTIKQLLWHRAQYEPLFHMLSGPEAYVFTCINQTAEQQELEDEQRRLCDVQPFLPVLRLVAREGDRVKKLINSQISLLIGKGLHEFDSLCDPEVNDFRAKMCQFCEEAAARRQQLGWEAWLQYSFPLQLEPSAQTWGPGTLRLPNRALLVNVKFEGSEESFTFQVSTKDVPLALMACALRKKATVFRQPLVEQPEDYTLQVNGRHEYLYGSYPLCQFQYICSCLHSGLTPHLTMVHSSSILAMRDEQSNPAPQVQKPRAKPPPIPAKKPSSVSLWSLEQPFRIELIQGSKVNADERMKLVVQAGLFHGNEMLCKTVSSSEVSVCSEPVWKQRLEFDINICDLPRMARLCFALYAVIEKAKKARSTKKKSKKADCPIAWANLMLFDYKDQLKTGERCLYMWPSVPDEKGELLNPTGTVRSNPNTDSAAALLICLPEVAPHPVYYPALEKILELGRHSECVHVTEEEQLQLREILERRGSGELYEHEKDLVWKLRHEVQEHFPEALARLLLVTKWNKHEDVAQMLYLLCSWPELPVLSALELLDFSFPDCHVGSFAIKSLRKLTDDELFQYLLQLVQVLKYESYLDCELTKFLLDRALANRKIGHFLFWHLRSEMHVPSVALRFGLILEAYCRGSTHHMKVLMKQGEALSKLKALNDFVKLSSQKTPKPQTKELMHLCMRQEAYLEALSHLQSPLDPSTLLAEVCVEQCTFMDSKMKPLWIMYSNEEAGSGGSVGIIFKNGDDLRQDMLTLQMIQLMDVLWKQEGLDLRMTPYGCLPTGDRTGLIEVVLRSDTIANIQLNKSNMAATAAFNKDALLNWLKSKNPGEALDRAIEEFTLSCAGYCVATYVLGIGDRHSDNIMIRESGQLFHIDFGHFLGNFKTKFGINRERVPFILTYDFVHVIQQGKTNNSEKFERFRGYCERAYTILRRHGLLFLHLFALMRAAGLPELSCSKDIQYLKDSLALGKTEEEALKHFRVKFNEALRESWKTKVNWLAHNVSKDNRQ
T2 sequence (P27986 whole entry partner): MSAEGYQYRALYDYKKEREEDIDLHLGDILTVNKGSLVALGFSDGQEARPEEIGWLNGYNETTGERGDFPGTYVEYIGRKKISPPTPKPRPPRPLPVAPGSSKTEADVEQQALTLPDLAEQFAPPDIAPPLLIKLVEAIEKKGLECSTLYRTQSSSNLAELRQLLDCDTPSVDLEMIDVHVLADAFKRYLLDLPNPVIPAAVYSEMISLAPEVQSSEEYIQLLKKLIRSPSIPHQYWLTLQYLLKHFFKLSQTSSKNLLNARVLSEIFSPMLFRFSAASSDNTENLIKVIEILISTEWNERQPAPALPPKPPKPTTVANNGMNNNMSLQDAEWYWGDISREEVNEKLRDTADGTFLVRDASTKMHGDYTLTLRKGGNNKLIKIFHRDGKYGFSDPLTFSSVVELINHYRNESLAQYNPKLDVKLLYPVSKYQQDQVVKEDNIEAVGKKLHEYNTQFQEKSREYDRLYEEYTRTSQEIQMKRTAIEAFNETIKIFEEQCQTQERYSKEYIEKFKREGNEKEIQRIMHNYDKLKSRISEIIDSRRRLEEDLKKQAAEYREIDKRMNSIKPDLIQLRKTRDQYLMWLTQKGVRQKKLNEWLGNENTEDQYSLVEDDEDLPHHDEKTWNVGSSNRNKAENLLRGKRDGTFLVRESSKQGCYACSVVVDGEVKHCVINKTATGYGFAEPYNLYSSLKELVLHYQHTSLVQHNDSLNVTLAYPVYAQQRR
The experiment in a line: kinobeads assay, PI3K delta. In kind it is binding. Conditions: kinobeads assay, read-out: Inhibition values (IC50) PI3Kd. The protocol: (§3) The compounds of the present invention as described were tested in the mTOR kinobeads assay as described below. Briefly, test compounds (at various concentrations) and the affinity matrix with the immobilized phenylmorpholin-chromen ligand (8-(4-aminomethyl-phenyl)-2-morpholin-4-yl-chromen-4-one) were added to cell lysate aliquots and allowed to bind to the proteins in the lysate sample. After the incubation time the beads with captured proteins were separated from the lysate. Bound proteins were then eluted and the presence of mTOR, PI3K delta (PI3 Kd) and DNA-dependent protein kinase (DNA-PK) was detected and quantified using a specific antibody in a dot blot procedure and the Odyssey infrared detection system. Kinobeads assays for PI3K (WO-A 2008/015013) and for kinase selectivity profiling (WO 2006/134056) have been previously described.
as §1
(§4) The affinity matrix (beads with immobilized phenylmorpholin-chromen ligand) was washed two times with 15 ml of 1×DP buffer containing 0.2% NP40 (IGEPAL® CA-630, Sigma, #13021) and then resupended in 5.5 ml of 1×DP buffer containing 0.2% NP40 (10% beads slurry).
as §2
(§5) Stock solutions of test compounds were prepared in DMSO. In a 96 well plate 30 μl solution of diluted test compounds at 5 mM in DMSO were prepared. Starting with this solution a 1:3 dilution series (9 steps) was prepared. For control experiments (no test compound) a buffer containing 2% DMSO was used. Compound CZC00018052 served as a positive control (PI-103; Calbiochem catalogue number 528100).
(§6) Jurkat cells (ATCC catalogue number TIB-152 Jurkat, clone E6-1) were grown in 1 liter Spinner flasks (Integra Biosciences, #182101) in suspension in RPMI 1640 medium (Invitrogen, #21875-034) supplemented with 10% Fetal Bovine Serum (Invitrogen) at a density between 0.15×10^6 and 1.2×10^6 cells/ml. Cells were harvested by centrifugation, washed once with 1×PBS buffer (Invitrogen, #14190-094) and cell pellets were frozen in liquid nitrogen and subsequently stored at −80° C.
(§7) Jurkat cells were homogenized in a Potter S homogenizer in lysis buffer: 50 mM Tris-HCl, 0.8% NP40, 5% glycerol, 150 mM NaCl, 1.5 mM MgCl2, 25 mM NaF, 1 mM sodium vanadate, 1 mM DTT, pH 7.5. One complete EDTA-free tablet (protease inhibitor cocktail, Roche Diagnostics, 1873580) per 25 ml buffer was added. The material was dounced 10 times using a mechanized POTTER S, transferred to 50 ml falcon tubes, incubated for 30 minutes on ice and spun down for 10 min at 20,000 g at 4° C. (10,000 rpm in Sorvall SLA600, precooled). The supernatant was transferred to an ultracentrifuge (UZ)-polycarbonate tube (Beckmann, 355654) and spun for 1 hour at 100.000 g at 4° C. (33.500 rpm in Ti50.2, precooled). The supernatant was transferred again to a fresh 50 ml falcon tube, the protein concentration was determined by a Bradford assay (BioRad) and samples containing 50 mg of protein per aliquot were prepared. The samples were immediately used for experiments or frozen in liquid nitrogen and stored frozen at −80° C. […]

For experiment [1], the target named is T3, DNA-dependent protein kinase (DNA-PK) (Homo sapiens, UniProt P78527).
T3 construct: endogenous in cells; host or cells: Jurkat, clone E6-1 (ATCC TIB-152) cell lysate
The experiment in a line: kinobeads assay, DNA-PK. In kind it is binding. Conditions: kinobeads assay. As for the experimental part: as §3, §1, §4, §2, §5, §6, §7

A further experiment has as its target T4, PI3Kalpha (PI3Ka) (Homo sapiens, UniProt P42336).
T4 construct: endogenous in cells; host or cells: cell lysate
The experiment in a line: kinobeads assay, PI3Kalpha. In kind it is binding. The settings on record: kinobeads assay, Table 6; for IC50: read-out: Inhibition values (IC50) PI3Ka. As for the experimental part: as §1
(§8) The effect of the compounds on the kinases PI3Kalpha (PI3Ka), PI3 Kbeta (PI3 Kb) and PI3 Kgamma (PI3 Kg) were tested in the kinobeads assay as described (WO-A 2009/098021).

For a further experiment, the target named is T5, PI3 Kbeta (PI3 Kb) (Homo sapiens, UniProt P42338).
T5 construct: endogenous in cells; host or cells: cell lysate
T5 sequence (P42338 whole entry): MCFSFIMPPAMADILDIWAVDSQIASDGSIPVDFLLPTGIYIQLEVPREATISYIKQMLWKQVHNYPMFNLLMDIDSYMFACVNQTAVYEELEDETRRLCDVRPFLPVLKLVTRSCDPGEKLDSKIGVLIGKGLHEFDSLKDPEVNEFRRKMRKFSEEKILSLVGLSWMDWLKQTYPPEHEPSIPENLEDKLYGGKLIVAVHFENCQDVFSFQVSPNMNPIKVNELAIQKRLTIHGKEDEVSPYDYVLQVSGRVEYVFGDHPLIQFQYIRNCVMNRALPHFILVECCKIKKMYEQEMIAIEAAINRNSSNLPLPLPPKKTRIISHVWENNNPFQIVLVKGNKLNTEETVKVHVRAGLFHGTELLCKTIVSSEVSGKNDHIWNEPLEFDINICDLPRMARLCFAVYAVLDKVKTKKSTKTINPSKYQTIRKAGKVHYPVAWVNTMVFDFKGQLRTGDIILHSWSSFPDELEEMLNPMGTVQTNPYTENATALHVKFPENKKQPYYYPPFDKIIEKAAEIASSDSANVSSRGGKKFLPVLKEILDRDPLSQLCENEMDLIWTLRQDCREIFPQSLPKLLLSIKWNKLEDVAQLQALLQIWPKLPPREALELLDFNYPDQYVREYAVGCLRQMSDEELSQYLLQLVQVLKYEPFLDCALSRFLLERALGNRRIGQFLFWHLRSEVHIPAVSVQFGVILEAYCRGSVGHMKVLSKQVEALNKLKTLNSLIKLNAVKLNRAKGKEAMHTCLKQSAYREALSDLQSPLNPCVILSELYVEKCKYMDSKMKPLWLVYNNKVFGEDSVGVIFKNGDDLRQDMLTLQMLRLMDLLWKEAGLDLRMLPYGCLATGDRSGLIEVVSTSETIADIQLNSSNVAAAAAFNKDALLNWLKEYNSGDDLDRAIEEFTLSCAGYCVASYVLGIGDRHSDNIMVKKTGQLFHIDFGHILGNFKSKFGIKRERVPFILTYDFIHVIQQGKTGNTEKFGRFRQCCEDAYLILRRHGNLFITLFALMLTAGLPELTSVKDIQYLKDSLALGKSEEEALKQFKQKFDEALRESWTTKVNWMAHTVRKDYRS
T5 sequence (P27986 whole entry partner): as the sequence (P27986 whole entry partner) above
The experiment in a line: kinobeads assay, PI3Kbeta. The settings on record: kinobeads assay, Table 6; read-out: Inhibition values (IC50) PI3Kb. In kind it is binding. As for the experimental part:
as §1, §8

In another experiment the target is T6, PI3 Kgamma (PI3 Kg) (Homo sapiens, UniProt P48736).
T6 construct: endogenous in cells; host or cells: cell lysate
T6 sequence (P48736 whole entry): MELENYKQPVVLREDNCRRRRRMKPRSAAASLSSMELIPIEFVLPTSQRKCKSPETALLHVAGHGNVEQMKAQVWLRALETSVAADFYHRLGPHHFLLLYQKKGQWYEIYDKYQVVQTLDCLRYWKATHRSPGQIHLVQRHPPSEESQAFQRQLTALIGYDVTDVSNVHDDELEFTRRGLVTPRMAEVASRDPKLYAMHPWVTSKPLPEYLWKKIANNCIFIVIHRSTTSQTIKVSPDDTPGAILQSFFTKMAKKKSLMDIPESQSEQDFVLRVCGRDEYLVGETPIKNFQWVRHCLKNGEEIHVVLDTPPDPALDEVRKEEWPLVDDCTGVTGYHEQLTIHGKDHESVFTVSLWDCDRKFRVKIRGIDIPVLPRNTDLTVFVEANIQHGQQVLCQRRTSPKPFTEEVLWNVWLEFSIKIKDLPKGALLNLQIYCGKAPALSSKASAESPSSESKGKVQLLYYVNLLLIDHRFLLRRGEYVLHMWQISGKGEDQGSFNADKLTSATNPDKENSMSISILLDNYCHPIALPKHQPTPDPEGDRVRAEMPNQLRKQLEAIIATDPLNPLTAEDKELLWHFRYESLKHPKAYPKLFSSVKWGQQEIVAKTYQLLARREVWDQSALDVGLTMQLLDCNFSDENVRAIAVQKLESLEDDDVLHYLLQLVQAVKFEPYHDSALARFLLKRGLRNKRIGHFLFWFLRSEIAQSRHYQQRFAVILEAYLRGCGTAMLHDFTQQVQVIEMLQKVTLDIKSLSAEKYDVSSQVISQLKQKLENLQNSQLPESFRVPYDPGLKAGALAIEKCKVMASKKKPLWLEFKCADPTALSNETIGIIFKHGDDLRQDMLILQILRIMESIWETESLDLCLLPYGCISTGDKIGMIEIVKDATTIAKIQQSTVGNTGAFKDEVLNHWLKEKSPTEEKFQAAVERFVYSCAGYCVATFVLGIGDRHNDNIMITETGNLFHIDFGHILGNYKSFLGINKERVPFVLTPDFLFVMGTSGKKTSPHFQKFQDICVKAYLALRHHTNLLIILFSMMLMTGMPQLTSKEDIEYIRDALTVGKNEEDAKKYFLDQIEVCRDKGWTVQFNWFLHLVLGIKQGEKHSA
The experiment in a line: kinobeads assay, PI3Kgamma. In kind it is binding. Conditions: kinobeads assay, Table 6; read-out: Inhibition values (IC50) PI3Kg. As for the experimental part:
as §1, §8

Where [2] appears, read: Table 4, read-out: Inhibition values (IC50) mTor.
The mark [3] stands for this setting: Table 6, read-out: Inhibition values (IC50) mTOR.
Setting [4] is: Table 4, read-out: Inhibition values (IC50) DNA-PK.
Setting [5] is: Table 6, read-out: Inhibition values (IC50) DNAPK.

Where two headings read alike, the source gives them in different places.

T4 sequence (P42336 whole entry): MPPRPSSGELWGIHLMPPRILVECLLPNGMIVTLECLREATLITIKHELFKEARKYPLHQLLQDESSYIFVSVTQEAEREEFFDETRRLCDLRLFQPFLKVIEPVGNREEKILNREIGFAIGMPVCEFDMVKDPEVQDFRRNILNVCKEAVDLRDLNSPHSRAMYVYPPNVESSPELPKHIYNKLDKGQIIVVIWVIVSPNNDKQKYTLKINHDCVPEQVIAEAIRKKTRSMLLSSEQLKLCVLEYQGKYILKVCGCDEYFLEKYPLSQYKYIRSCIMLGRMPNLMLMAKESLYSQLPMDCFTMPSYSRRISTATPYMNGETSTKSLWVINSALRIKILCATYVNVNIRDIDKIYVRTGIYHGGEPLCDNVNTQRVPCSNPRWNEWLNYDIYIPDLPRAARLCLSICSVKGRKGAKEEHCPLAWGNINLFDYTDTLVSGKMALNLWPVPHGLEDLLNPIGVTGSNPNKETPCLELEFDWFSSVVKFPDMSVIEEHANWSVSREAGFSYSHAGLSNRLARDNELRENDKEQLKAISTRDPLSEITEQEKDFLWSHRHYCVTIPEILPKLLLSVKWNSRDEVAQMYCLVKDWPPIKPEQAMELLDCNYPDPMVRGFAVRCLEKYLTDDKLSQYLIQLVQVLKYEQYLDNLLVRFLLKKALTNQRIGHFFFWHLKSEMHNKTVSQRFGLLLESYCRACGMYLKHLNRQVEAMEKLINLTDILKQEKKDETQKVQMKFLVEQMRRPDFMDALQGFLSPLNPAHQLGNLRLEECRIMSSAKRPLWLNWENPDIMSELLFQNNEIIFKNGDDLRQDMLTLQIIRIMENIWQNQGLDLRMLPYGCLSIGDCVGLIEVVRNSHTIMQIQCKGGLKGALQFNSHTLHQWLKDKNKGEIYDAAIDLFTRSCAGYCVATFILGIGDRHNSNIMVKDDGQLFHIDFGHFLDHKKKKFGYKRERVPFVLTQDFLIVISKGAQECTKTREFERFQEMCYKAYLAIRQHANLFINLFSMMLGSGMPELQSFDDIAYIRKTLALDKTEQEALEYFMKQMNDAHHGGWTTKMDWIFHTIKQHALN
T4 sequence (P27986 whole entry partner): as the sequence (P27986 whole entry partner) above

With `C[C@H]1COCCN1c1nc(-c2ccc(NC(N)=O)cc2)nc2c1CNC2` [Example 5, (S)-1-(4-(4-(3-methylmorpholino)-6,7-dihydro-5H-pyrrolo[3,4-d]pyrimidin-2-yl)phenyl)urea], the IC50 at mTOR (setting [2]) was below 0.1 µM; at mTOR (setting [3]) it was below 0.1 µM; at PI3K delta (PI3 Kd) (Table 4), 1 to 10 µM; at PI3K delta (PI3 Kd) (Table 6), 1 to 10 µM; in experiment [1] (setting [4]), above 10 µM; in experiment [1] (setting [5]) it was above 10 µM. Besides, the IC50 on PI3 Kbeta (PI3 Kb) is 1 to 10 µM; at PI3 Kgamma (PI3 Kg), 0.1 to 1 µM. For the same compound, the “Inhibition values (IC50) PI3Ka” value on PI3Kalpha (PI3Ka) is “B (B >0.1 μM < 1 μM)”.

Take `C[C@H]1COCCN1c1nc(-c2ccc(NC(=O)NCCN(C)C)cc2)nc2c1CN(C)C2` [Example 54, (S)-1-(2-(dimethylamino)ethyl)-3-(4-(6-methyl-4-(3-methylmorpholino)-6,7-dihydro-5H-pyrrolo[3,4-d]pyrimidin-2-yl)phenyl)urea]: the half-inhibitory concentration (IC50) on mTOR (setting [2]) was 0.1 to 1 µM; at mTOR (setting [3]), 0.1 to 1 µM; in experiment [1] (setting [4]) it was above 10 µM; in experiment [1] (setting [5]), above 10 µM; at PI3 Kgamma (PI3 Kg), 1 to 10 µM.

As for `CCNC(=O)Nc1ccc(-c2nc3c(c(N4CCOC[C@@H]4C)n2)CN(C(=O)CCN(C)C)CC3)cc1` [Example 92, (S)-1-(4-(6-(3-(dimethylamino)propanoyl)-4-(3-methylmorpholino)-5,6,7,8-tetrahydropyrido[4,3-d]pyrimidin-2-yl)phenyl)-3-ethylurea], the IC50 was 0.1 to 1 µM on mTOR (setting [3]); above 10 µM at PI3K delta (PI3 Kd) (Table 6); above 10 µM in experiment [1] (setting [5]); above 10 µM on PI3 Kbeta (PI3 Kb); above 10 µM at PI3 Kgamma (PI3 Kg). In addition, the “Inhibition values (IC50) PI3Ka” value at PI3Kalpha (PI3Ka) is listed as “D (D >10 μM)”.

As for `CCNC(=O)Nc1ccc(-c2nc3c(c(N4CCOCC4)n2)CN(C(C)=O)C3)cc1` [Example 99, 1-(4-(6-acetyl-4-morpholino-6,7-dihydro-5H-pyrrolo[3,4-d]pyrimidin-2-yl)phenyl)-3-ethylurea], the IC50 is below 0.1 µM on mTOR (setting [3]); 1 to 10 µM on PI3K delta (PI3 Kd) (Table 6); above 10 µM in experiment [1] (setting [5]); 1 to 10 µM on PI3Kalpha (PI3Ka); 1 to 10 µM at PI3 Kbeta (PI3 Kb); above 10 µM on PI3 Kgamma (PI3 Kg).

Consider `CCNC(=O)Nc1ccc(-c2nc3c(c(N4CCOC[C@@H]4C)n2)CCN(C)C3)c(C)c1` [Example 109, (S)-1-ethyl-3-(3-methyl-4-(7-methyl-4-(3-methylmorpholino)-5,6,7,8-tetrahydropyrido[3,4-d]pyrimidin-2-yl)phenyl)urea], for which the IC50 is 0.1 to 1 µM at mTOR (setting [3]); above 10 µM on PI3K delta (PI3 Kd) (Table 6); above 10 µM in experiment [1] (setting [5]); above 10 µM at PI3 Kbeta (PI3 Kb); above 10 µM at PI3 Kgamma (PI3 Kg). On PI3Kalpha (PI3Ka), the “Inhibition values (IC50) PI3Ka” value is given as “D (D >10 μM)”.

In the case of `CCOC(=O)N1Cc2nc(-c3ccc(NC(=O)Nc4cccc(O)c4)cc3)nc(N3CCOC[C@@H]3C)c2C1` [Example 111, (S)-ethyl 2-(4-(3-(3-hydroxyphenyl)ureido)phenyl)-4-(3-methylmorpholino)-5H-pyrrolo[3,4-d]pyrimidine-6(7H)-carboxylate], the IC50 on mTOR (setting [3]) is 0.1 to 1 µM; on PI3K delta (PI3 Kd) (Table 6), above 10 µM; in experiment [1] (setting [5]) it was above 10 µM; on PI3 Kbeta (PI3 Kb), above 10 µM; at PI3 Kgamma (PI3 Kg), above 10 µM. On PI3Kalpha (PI3Ka), the “Inhibition values (IC50) PI3Ka” value is on record as “D (D >10 μM)”.

In the case of `C[C@H]1COCCN1c1nc(-c2ccc(NC(=O)NC3CC3)cc2)nc2c1CN(C(=O)CCC(N)=O)C2` [Example 127, (S)-4-(2-(4-(3-cyclopropylureido)phenyl)-4-(3-methylmorpholino)-5H-pyrrolo[3,4-d]pyrimidin-6(7H)-yl)-4-oxobutanamide], the IC50 at mTOR (setting [3]) was below 0.1 µM; on PI3K delta (PI3 Kd) (Table 6) it was above 10 µM; at PI3Kalpha (PI3Ka) it was 1 to 10 µM; on PI3 Kgamma (PI3 Kg), above 10 µM.

For the compound `C[C@H]1COCCN1c1nc(-c2ccc(NC(=O)NC3CC3)cc2)nc2c1CN(CC1CCN(C(=O)OC(C)(C)C)CC1)C2` [Example 128, (S)-tert-butyl 4-((2-(4-(3-cyclopropylureido)phenyl)-4-(3-methylmorpholino)-5H-pyrrolo[3,4-d]pyrimidin-6(7H)-yl)methyl)piperidine-1-carboxylate], the values for the IC50 on mTOR (setting [3]), on PI3K delta (PI3 Kd) (Table 6) and at PI3 Kgamma (PI3 Kg) were 0.1 to 1 µM, above 10 µM and above 10 µM, respectively. Moreover, on PI3Kalpha (PI3Ka), the “Inhibition values (IC50) PI3Ka” value is “D (D >10 μM)”.

As a reminder, the IC50 is the concentration that gives 50% inhibition.

These data come from patent publication US8785457B2 (Cellzome Limited, priority 2009, dated 2014).
